According to patent US4837305A, “Derivatives of β-adrenergic antagonists” (The Regents of the University of California, priority 1987, dated 1989):

Test system: S-49 mouse lymphoma cells
Experiment: Blocking of isoproterenol-promoted cyclic AMP accumulation in S-49 mouse lymphoma cells
Assay type: cell-based
Conditions: blocking isoproterenol-promoted cyclic AMP release in S49 cells
From the text: The β-adrenergic antagonist derivatives can be tested for biological and pharmacological activity by an in vitro technique. In this test a measurement is taken of the concentration of the derivative required to block a specified dose of isoproterenol (β-adrenergic agonist) in S-49 mouse lymphoma cells as measured by cyclic AMP accumulation therein. Details of the test utilizing S-49 mouse lymphoma cells is set forth in Coffino et al, In Vitro, 14, #1, 140 (1978). The activities of the β-adrenergic derivatives are expressed as the relative potencies of the unmodified drug, i.e., the β-adrenergic antagonist to that of the derivative drug.

Cc1ccc(NC(=O)CCC(C)NCC(O)COc2cccc3ccccc23)cc1 (stereo not shown) [Compound 7, 4-[3-(1-Naphthyloxy)-2-Hydroxypropylamino]-Pentanoic Acid p-Toluide]
Rel. Potency (potency relative to the parent compound) (relative to propranolol): 6.8 × 10^-5

Cc1ccc(NC(=O)CCCC(C)NCC(O)COc2cccc3ccccc23)cc1 (stereo not shown) [Compound 8, 5-[3-(1-Naphthyloxy)-2-Hydroxypropylamino]-Hexanoic Acid p-Toluide]
Rel. Potency (potency relative to the parent compound) (relative to propranolol): 6.8 × 10^-5

Cc1ccc(NC(=O)CCCCC(C)NCC(O)COc2cccc3ccccc23)cc1 (stereo not shown) [Compound 9, 6-[3-(1-Naphthyloxy)-2-Hydroxypropylamino]-Heptanoic Acid p-Toluide]
Rel. Potency (potency relative to the parent compound) (relative to propranolol): 4.5 × 10^2

Cc1ccc(NC(=O)CCCCCC(C)NCC(O)COc2cccc3ccccc23)cc1 (stereo not shown) [Compound 10, 7-[3-(1-Naphthyloxy)-2-Hydroxypropylamino]-Octanoic Acid-p-Toluide]
Rel. Potency (potency relative to the parent compound) (relative to propranolol): 3.7 × 10^-2

CC(CCCCC(=O)Nc1ccc(C(F)(F)F)cc1)NCC(O)COc1cccc2ccccc12 (stereo not shown) [Compound 11, 6-[3-(1-Naphthyloxy)-2-Hydroxypropylamino]-Heptanoic Acid p-Trifluoromethylanilide]
Rel. Potency (potency relative to the parent compound) (relative to propranolol): 8.75

CC(CCCCC(=O)Nc1ccc(CCC(=O)O)cc1)NCC(O)COc1cccc2ccccc12 (stereo not shown) [Compound 12, 3-{p-(6-[3-(1-Naphthyloxy)-2-Hydroxypropylamino]Heptanoylamino)-Phenyl}-Propionic Acid]
Rel. Potency (potency relative to the parent compound) (relative to propranolol): 8.8 × 10^-1

CCCCNC(=O)CCc1ccc(NC(=O)CCCCC(C)NCC(O)COc2cccc3ccccc23)cc1 (stereo not shown) [Compound 13, 3-{p-(6-[3-(1-Naphthyloxy)-2-Hydroxypropylamino]Heptanoylamino)-Phenyl}-Propionic Acid n-Butylamide]
Rel. Potency (potency relative to the parent compound) (relative to propranolol): 4.5 × 10^-2

CCCCNC(=O)CCCCC(C)NCC(O)COc1cccc2ccccc12 (stereo not shown) [Compound 14, 6-[3-(1-Naphthyloxy)-2-Hydroxypropylamino]-Heptanoic Acid n-Butylamide]
Rel. Potency (potency relative to the parent compound) (relative to propranolol): 9.1 × 10^-1

CC(=O)N[C@@H](Cc1ccc(NC(=O)CCCCC(C)NCC(O)COc2cccc3ccccc23)cc1)C(=O)NCCCO (stereo partly drawn) [Compound 15, N^α -Acetyl-p-{6-(3-[1-Naphthyloxy]-2-Hydroxypropylamino)-Heptanoylamino}-L-Phenylalanyl-3-Hydroxypropylamide]
Rel. Potency (potency relative to the parent compound) (relative to propranolol): 1.75 × 10^-1

CNC(=O)CNC(=O)[C@H](Cc1ccc(NC(=O)CCCCC(C)NCC(O)COc2cccc3ccccc23)cc1)NC(=O)OC(C)(C)C (stereo partly drawn) [Compound 16, N^α -t-Butyloxycarbonyl-p-{6-(3-[1-Naphthyloxy]-2-Hydroxypropylamino)-Heptanoylamino}-L-Phenylalanyl-Glycyl-Methylamide]
Rel. Potency (potency relative to the parent compound) (relative to propranolol): 7.8 × 10^-4

CC(=O)Nc1ccc(OCC(O)CNC(C)CCCCC(=O)Nc2ccc(C)cc2)cc1 (stereo not shown) [Compound 17, 6-[3-(4-Acetamidophenoxy)-2-Hydroxypropylamino]-Heptanoic Acid p-Toluide]
Rel. Potency (potency relative to the parent compound) (relative to practolol): 2.1 × 10^1

CC(=O)Nc1ccc(OCC(O)CNC(C)CCCCC(=O)Nc2ccc(C(F)(F)F)cc2)cc1 (stereo not shown) [Compound 18, 6-[3-(4-Acetamidophenoxy)-2-Hydroxypropylamino]-Heptanoic Acid p-Trifluoromethylanilide]
Rel. Potency (potency relative to the parent compound) (relative to practolol): 6.0

CC(=O)Nc1ccc(OCC(O)CNC(C)CCCCC(=O)Nc2ccc(C[C@H](NC(C)=O)C(=O)NCCCO)cc2)cc1 (stereo partly drawn) [Compound 19, N^α -Acetyl-p-{6-(3-[4-Acetamidophenoxy]-2-Hydroxypropylamino)-Heptanoylamino}-L-Phenylalanyl-3-Hydroxypropylamide]
Rel. Potency (potency relative to the parent compound) (relative to practolol): 1.5
